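48-hour exposure; five concentrations; linearly interpolated endpoints. The concentration for 50% growth inhibition is given as GI50.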 Calls of active or inactive are those of the source. No stated cut-off is given here; in the data, active = GI50 up to about 1.1 µM and inactive = higher.
Assays:
Test in all cases: growth of human tumour cells (NCI), 48 h
786-0 = tested on: 786-0
A498 = tested on: A498
A549 = tested on: A549
ACHN = tested on: ACHN
BT-549 = tested on: BT-549
CAKI-1 = tested on: CAKI-1
CCRF-CEM = tested on: CCRF-CEM
COLO 205 = tested on: COLO 205
DU-145 = tested on: DU-145
EKVX = tested on: EKVX
HCT-116 = tested on: HCT-116
HCT-15 = tested on: HCT-15
HL-60 = tested on: HL-60
HOP-62 = tested on: HOP-62
HOP-92 = tested on: HOP-92
HT-29 = tested on: HT-29
Hs-578T = tested on: Hs-578T
IGROV-1 = tested on: IGROV-1
K562 = tested on: K562
KM12 = tested on: KM12
LOX IMVI = tested on: LOX IMVI
M14 = tested on: M14
MCF7 = tested on: MCF7
MDA-MB-231 = tested on: MDA-MB-231
MDA-MB-435 = tested on: MDA-MB-435
MDA-N = tested on: MDA-N
MOLT-4 = tested on: MOLT-4
NCI-H23 = tested on: NCI-H23
NCI-H460 = tested on: NCI-H460
NCI-H522 = tested on: NCI-H522
NCI/ADR-RES = tested on: NCI/ADR-RES
OVCAR-3 = tested on: OVCAR-3
OVCAR-4 = tested on: OVCAR-4
OVCAR-5 = tested on: OVCAR-5
OVCAR-8 = tested on: OVCAR-8
PC-3 = tested on: PC-3
RPMI-8226 = tested on: RPMI-8226
SF-268 = tested on: SF-268
SF-295 = tested on: SF-295
SF-539 = tested on: SF-539
SK-MEL-2 = tested on: SK-MEL-2
SK-MEL-5 = tested on: SK-MEL-5
SK-OV-3 = tested on: SK-OV-3
SN12C = tested on: SN12C
SNB-19 = tested on: SNB-19
SNB-75 = tested on: SNB-75
SR = tested on: SR
SW-620 = tested on: SW-620
T47D = tested on: T47D
TK-10 = tested on: TK-10
U-251 = tested on: U-251
UACC-257 = tested on: UACC-257
UACC-62 = tested on: UACC-62
UO-31 = tested on: UO-31
HCC 2998 = tested on: HCC 2998
Malme-3M = tested on: Malme-3M
NCI-H226 = tested on: NCI-H226
RXF 393 = tested on: RXF 393
SK-MEL-28 = tested on: SK-MEL-28

O=C(Cn1nnc(-c2ccccc2)n1)N/N=C/c1cn(Cc2ccc(Cl)cc2Cl)c2ccccc12
GI50 (786-0): 36.9 µM (inactive) | GI50 (A498): 75.5 µM (inactive) | GI50 (A549): 51.5 µM (inactive) | GI50 (ACHN): > 100 µM (inactive) | GI50 (BT-549): > 100 µM (inactive) | GI50 (CAKI-1): > 100 µM (inactive) | GI50 (CCRF-CEM): 44.1 µM (inactive) | GI50 (COLO 205): > 100 µM (inactive) | GI50 (DU-145): > 100 µM (inactive) | GI50 (EKVX): 44.5 µM (inactive) | GI50 (HCT-116): > 100 µM (inactive) | GI50 (HCT-15): > 100 µM | GI50 (HL-60): 39.6 µM (inactive) | GI50 (HOP-62): > 100 µM (inactive) | GI50 (HOP-92): > 100 µM (inactive) | GI50 (HT-29): > 100 µM (inactive) | GI50 (Hs-578T): > 100 µM (inactive) | GI50 (IGROV-1): > 100 µM (inactive) | GI50 (K562): > 100 µM (inactive) | GI50 (KM12): > 100 µM (inactive) | GI50 (LOX IMVI): > 100 µM (inactive) | GI50 (M14): > 100 µM (inactive) | GI50 (MCF7): > 100 µM (inactive) | GI50 (MDA-MB-231): > 100 µM (inactive) | GI50 (MDA-MB-435): > 100 µM (inactive) | GI50 (MDA-N): > 100 µM (inactive) | GI50 (MOLT-4): > 100 µM (inactive) | GI50 (NCI-H23): > 100 µM (inactive) | GI50 (NCI-H460): > 100 µM (inactive) | GI50 (NCI-H522): 43.1 µM (inactive) | GI50 (NCI/ADR-RES): > 100 µM (inactive) | GI50 (OVCAR-3): > 100 µM (inactive) | GI50 (OVCAR-4): > 100 µM (inactive) | GI50 (OVCAR-5): > 100 µM (inactive) | GI50 (OVCAR-8): > 100 µM (inactive) | GI50 (PC-3): > 100 µM (inactive) | GI50 (RPMI-8226): > 100 µM (inactive) | GI50 (SF-268): 31.8 µM (inactive) | GI50 (SF-295): 63.2 µM (inactive) | GI50 (SF-539): > 100 µM (inactive) | GI50 (SK-MEL-2): > 100 µM (inactive) | GI50 (SK-MEL-5): > 100 µM (inactive) | GI50 (SK-OV-3): > 100 µM (inactive) | GI50 (SN12C): > 100 µM (inactive) | GI50 (SNB-19): > 100 µM (inactive) | GI50 (SNB-75): 45.1 µM (inactive) | GI50 (SR): 63.1 µM (inactive) | GI50 (SW-620): 58.3 µM (inactive) | GI50 (T47D): 47.2 µM (inactive) | GI50 (TK-10): > 100 µM (inactive) | GI50 (U-251): > 100 µM (inactive) | GI50 (UACC-257): > 100 µM (inactive) | GI50 (UACC-62): > 100 µM (inactive) | GI50 (UO-31): > 100 µM (inactive)

O=c1c(C(c2ccc(/C=C/c3ccccc3)cc2)c2c(O)oc3cc(O)ccc3c2=O)c(O)oc2cc(O)ccc12
GI50 (786-0): > 100 µM (inactive) | GI50 (A498): > 100 µM (inactive) | GI50 (A549): > 100 µM (inactive) | GI50 (ACHN): > 100 µM (inactive) | GI50 (BT-549): 98.9 µM (inactive) | GI50 (CAKI-1): 55.3 µM (inactive) | GI50 (CCRF-CEM): 37.6 µM (inactive) | GI50 (COLO 205): > 100 µM (inactive) | GI50 (DU-145): > 100 µM (inactive) | GI50 (EKVX): > 100 µM (inactive) | GI50 (HCC 2998): > 100 µM (inactive) | GI50 (HCT-116): > 100 µM (inactive) | GI50 (HCT-15): > 100 µM | GI50 (HL-60): 27.5 µM (inactive) | GI50 (HOP-62): > 100 µM (inactive) | GI50 (HOP-92): 75.2 µM (inactive) | GI50 (HT-29): > 100 µM (inactive) | GI50 (Hs-578T): 56.6 µM (inactive) | GI50 (IGROV-1): > 100 µM (inactive) | GI50 (K562): 91.4 µM (inactive) | GI50 (KM12): > 100 µM (inactive) | GI50 (LOX IMVI): 36.7 µM (inactive) | GI50 (M14): > 100 µM (inactive) | GI50 (MCF7): 49.9 µM (inactive) | GI50 (MDA-MB-231): > 100 µM (inactive) | GI50 (MDA-MB-435): 82.2 µM (inactive) | GI50 (MDA-N): 53.5 µM (inactive) | GI50 (MOLT-4): 20.9 µM (inactive) | GI50 (Malme-3M): > 100 µM (inactive) | GI50 (NCI-H226): > 100 µM (inactive) | GI50 (NCI-H23): > 100 µM (inactive) | GI50 (NCI-H460): > 100 µM (inactive) | GI50 (NCI-H522): 52 µM (inactive) | GI50 (NCI/ADR-RES): > 100 µM (inactive) | GI50 (OVCAR-3): > 100 µM (inactive) | GI50 (OVCAR-4): > 100 µM (inactive) | GI50 (OVCAR-5): > 100 µM (inactive) | GI50 (OVCAR-8): 98.6 µM (inactive) | GI50 (PC-3): > 100 µM (inactive) | GI50 (RPMI-8226): 39.6 µM (inactive) | GI50 (RXF 393): > 100 µM (inactive) | GI50 (SF-268): 33.7 µM (inactive) | GI50 (SF-295): > 100 µM (inactive) | GI50 (SF-539): > 100 µM (inactive) | GI50 (SK-MEL-28): 11.3 µM (inactive) | GI50 (SK-MEL-2): > 100 µM (inactive) | GI50 (SK-MEL-5): 21.8 µM (inactive) | GI50 (SK-OV-3): > 100 µM (inactive) | GI50 (SN12C): 48.4 µM (inactive) | GI50 (SNB-19): > 100 µM (inactive) | GI50 (SNB-75): 29 µM (inactive) | GI50 (SW-620): 91.8 µM (inactive) | GI50 (T47D): 52.6 µM (inactive) | GI50 (TK-10): > 100 µM (inactive) | GI50 (U-251): 2.88 µM (inactive) | GI50 (UACC-257): > 100 µM (inactive) | GI50 (UACC-62): > 100 µM (inactive) | GI50 (UO-31): 56.9 µM (inactive)
